{"source": "patent US12569482B2", "about": "“Methods and compositions for treating idiopathic pulmonary fibrosis” (priority 2018, dated 2026)", "tested_on": "bleomycin-induced pulmonary fibrosis", "assay": "Bleomycin mouse model of pulmonary fibrosis, Example 3 (itraconazole inhalation, oral nintedanib)", "type": "in vivo, ICR mice", "settings": "oral 60 mg/kg", "procedure": "Iodine was used to disinfect the neck hair and skin. Later, the neck skin was cut to expose the trachea. 50 μL of PBS or bleomycin hydrochloride (Hisun Pfizer pharmaceutical Co., LTD, 17001711) in 0.9% sodium chloride solution ([…], i.e., […]) was quickly sprayed as mist into the trachea of mice from the Control Group or the other group with a high pressure syringe connected to a spraying nozzle. At the end, the skin was sutured and disinfected, and the mice were returned to the cages for recovery. On Day 5, the mice treated with bleomycin were divided into six groups at random (referred to as Group 2-7). […] For itraconazole inhalation, each mouse was placed in a 16×13×9 (length×width×height in cm) cabinet. Itraconazole preparation of 5, 15 or 50 mg/mL was sprayed into the cabinet with a compressed nebulizer. [table] Twenty-four hours after the last drug administration, the mice were sacrificed by dislocation of cervical vertebra. The trachea was isolated and intubated. The upper lobe of the left lung was ligated. […] The total number of leukocytes in the BALF was counted. The BALF was centrifuged at 2000 rpm/min for 10 min at 4° C. The supernatant was collected and stored at -80° C. for cytokine measurement, and the deposit was smeared on glass slides. After air drying at room temperature, the slides were subjected to Wright's-Giemsa staining. The number of neutrophils, lymphocytes and macrophages were counted under a microscope from a total of 200 cells for each slide. The upper left lung tissues were used for measuring the level of hydroxyproline, and the lower part was fixed in formalin for H&E staining and Masson's staining. The level of hydroxyproline in the lung tissues was measured using a Hydroxyproline Assay kit (Nanjing JianCheng Bioengineering Institute). The level of TGF-β1 in 100 μL BALF was determined using a mouse TGF-β1 ELISA kit (Beijing 4A Biotech Co., LTD), and the level of type I collagen (Col I) in 100 μL BALF was determined using a mouse Collagen Type I ELISA kit (CUSABIO BIOTEH). […] Then, the lung tissues were sectioned into 4 μm-thick sections for H&E staining and Masson's staining. H&E staining was used to observe the alveolar hyperemia, the infiltration or aggregation of neutrophils in the alveolar space or the vascular wall, and the thickening of alveolar septum or the formation of hyaline membranes. The degree of fibrosis in the lesions with H&E staining was observed under microscope and scored using a semi-quantitative Ashcroft scoring criteria below. Grade 0: Normal tracheal bronchoalveolar structures; Grade 1: Minimal fibrous thickening of alveolar or bronchiolar walls; Grade 3: Moderate thickening of walls without obvious damage to lung architecture; Grade 5: Increased fibrosis with definite damage to lung structure and formation of fibrous bands or small fibrous masses; Grade 7: Severe distortion of structure and large fibrous areas, with honeycomb lung placed in this category; Grade 8: Total fibrous obliteration. The severity of fibrosis between two odd numbers was considered as the corresponding even number. On the other hand, IOD value of positive Masson's staining site was measured by Image pro software for analysis. The data were tested for the homogeneity of variance. If the variance was homogenous (p>0.05), a single factor variance analysis was performed. The Dunnet test was performed for the differences between each dose group and the control group. If the variance was heterogenous (p 0.05), a non-parametric test was conducted, followed by the […] test for examining the differences between each dose group and the control group. The difference was considered significant when p<0.05."}
{"smiles": "COC(=O)c1ccc2c(c1)NC(=O)/C2=C(\\Nc1ccc(N(C)C(=O)CN2CCN(C)CC2)cc1)c1ccccc1", "note": "[nintedanib]", "values": [{"measurement": "level of Col I in the BALF", "result": "did not reduce"}, {"measurement": "number of lymphocytes and macrophages in the BALF", "result": "had no effects"}, {"measurement": "pathological changes of lung tissues (H&E staining)", "result": "significantly reduced the infiltration of neutrophils and macrophages and the thickening of alveolar septum"}, {"measurement": "collagen deposition in the lung tissues (Masson's staining IOD)", "setting": "p<0.001", "result": "significantly reduced the collagen deposition"}, {"measurement": "level of TGF-β1 in the BALF", "setting": "p<0.001", "result": "significantly reduced"}, {"measurement": "level of hydroxyproline in the lung tissues", "setting": "p<0.01", "result": "significantly reduced"}, {"measurement": "neutrophils in the BALF", "setting": "p<0.01", "result": "significantly reduced"}, {"measurement": "semi-quantitative Ashcroft Score", "setting": "p<0.01", "result": "significantly reduced the pulmonary fibrosis"}, {"measurement": "total number of leukocytes in the BALF", "setting": "p<0.01", "result": "significantly reduced"}]}
